Test results: patent US9434994B2, “Methods for prediction of clinical outcome to epidermal growth factor receptor inhibitors by non-small cell lung cancer patients” (The Regents of the University of Colorado, a body corporate, priority 2004, dated 2016)
Like-named read-outs stand apart in the source and are kept apart here.

Test system: NSCLC patients
[1] = EGFR FISH+/EGFR mutation+ (17 patients)
[2] = FISH +, IHC +, EGFR Mut +, n 12
[3] = FISH +, IHC +, EGFR Mut −, n 20

Excerpt: In order to make a more substantial statistical analysis and power, the inventors have analyzed the combined data set, which includes altogether 204 patients with NSCLC.
The multivariable analysis is based on an initial univariable analysis including clinical- and biological markers by using backward stepwise regression methods. All univariately significant covariates were included in the stepwise selection.

COc1cc2ncnc(Nc3ccc(F)c(Cl)c3)c2cc1OCCCN1CCOCC1 [gefitinib]
HR, survival, multivariable (Current/Former smokers): 2.68
DC (disease control) (EGFR FISH+): 65%
MS (95% CI) (EGFR FISH+): 18 (14-21) months
OR (overall response) (EGFR FISH+): 33%
TTP, median (95% CI) (EGFR FISH+): 9 (5-10) months
1-yr survival (EGFR FISH+ or IHC+): 44% (33-55)
DCR (EGFR FISH+ or IHC+): 43%
MS (EGFR FISH+ or IHC+): 11 (7-15) mo
RSP (EGFR FISH+ or IHC+): 10%
TTP (EGFR FISH+ or IHC+): 3 (2-5) mo
Disease Control Rate [1]: 69%
response rate [1]: 69%
time to progression [1]: 16 months
Median Survival (EGFR FISH+/EGFR mutation+, not yet achieved): exceeding 20 months
DCR (EGFR FISH+/IHC+): 76%
MS (EGFR FISH+/IHC+): 21 (15-21) mo
RSP (EGFR FISH+/IHC+): 41%
TTP (EGFR FISH+/IHC+): 9 (6-16) mo
DC (disease control) (EGFR FISH-): 30%
MS (95% CI) (EGFR FISH-): 8 (6-11) months
OR (overall response) (EGFR FISH-): 6%
TTP, median (95% CI) (EGFR FISH-): 3 (2-3) months
Disease Control Rate (EGFR FISH-/EGFR mutation-): 29%
response rate (EGFR FISH-/EGFR mutation-): 3%
time to progression (EGFR FISH-/EGFR mutation-): 3 month
DCR (EGFR FISH-/IHC-): 17%
MS (EGFR FISH-/IHC-): 6 (4-8) mo
RSP (EGFR FISH-/IHC-): 2%
TTP (EGFR FISH-/IHC-): 2 (2-3) mo
DC (disease control) (EGFR IHC+): 56%
MS (95% CI) (EGFR IHC+): 14 (11-21) months
OR (overall response) (EGFR IHC+): 22%
TTP, median (95% CI) (EGFR IHC+): 5 (3-7) months
DC (disease control) (EGFR IHC-): 27%
HR, survival, multivariable (EGFR IHC-): 1.70
MS (95% CI) (EGFR IHC-): 7 (5-10) months
OR (overall response) (EGFR IHC-): 5%
TTP, median (95% CI) (EGFR IHC-): 3 (2-3) months
DC (disease control) (EGFR Mutation+): 52%
MS (95% CI) (EGFR Mutation+): 13 (6-21)
OR (overall response) (EGFR Mutation+): 39%
TTP, median (95% CI) (EGFR Mutation+): 3 (2-11)
DC (disease control) (EGFR Mutation-): 37%
MS (95% CI) (EGFR Mutation-): 11 (7-13)
OR (overall response) (EGFR Mutation-): 7%
TTP, median (95% CI) (EGFR Mutation-): 3 (2-4)
1-yr survival (EGFR mutation+ or IHC+): 50% (39-61)
DCR (EGFR mutation+ or IHC+): 47%
MS (EGFR mutation+ or IHC+): 12 (8-15) mo
RSP (EGFR mutation+ or IHC+): 12%
TTP (EGFR mutation+ or IHC+): 3 (2-5) mo
1-yr survival (EGFR mutation+/IHC+): 63% (45-81)
MS (EGFR mutation+/IHC+): 21 (10-21) mo
RSP (EGFR mutation+/IHC+): 50%
TTP (EGFR mutation+/IHC+): 10 (2-16) mo
MS (EGFR mutation-/IHC-): 7 (5-12) mo
RSP (EGFR mutation-/IHC-): 2%
TTP (EGFR mutation-/IHC-): 2 (2-3) mo
1-yr surv [2]: 100%
DCR [2]: 78%
OR (response rate) [2]: 78%
TTP [2]: 20 (11-20) months
1-yr surv [3]: 64% (42-86)
OR (response rate) [3]: 22%
OS (median survival) [3]: 15 (6-16) months
TTP [3]: 5 (3-12) months
1-yr surv (FISH +, IHC +, P-AKT +, N 34): 84% (70-97)
DCR (FISH +, IHC +, P-AKT +, N 34): 80%
OR (response rate) (FISH +, IHC +, P-AKT +, N 34): 43%
TTP (FISH +, IHC +, P-AKT +, N 34): 12 (6-19) months
1-yr surv (FISH +, IHC +, P-AKT −, N 4): 75% (33-100)
OR (response rate) (FISH +, IHC +, P-AKT −, N 4): 0%
OS (median survival) (FISH +, IHC +, P-AKT −, N 4): 18 (5-18) months
TTP (FISH +, IHC +, P-AKT −, N 4): 9 (2-9) months
1-yr surv (FISH +, IHC −, EGFR Mut +, n 5): 60% (17-100)
DCR (FISH +, IHC −, EGFR Mut +, n 5): 50%
OR (response rate) (FISH +, IHC −, EGFR Mut +, n 5): 50%
TTP (FISH +, IHC −, EGFR Mut +, n 5): 3 (2-9) months
1-yr surv (FISH +, IHC −, EGFR Mut −, n 8): 38% (7-66)
DCR (FISH +, IHC −, EGFR Mut −, n 8): 39%
OR (response rate) (FISH +, IHC −, EGFR Mut −, n 8): 0%
OS (median survival) (FISH +, IHC −, EGFR Mut −, n 8): 9 (1-9) months
TTP (FISH +, IHC −, EGFR Mut −, n 8): 2 (1-6) months
1-yr surv (FISH +, IHC −, P-AKT +, N 15): 53% (28-79)
DCR (FISH +, IHC −, P-AKT +, N 15): 46%
OR (response rate) (FISH +, IHC −, P-AKT +, N 15): 15%
OS (median survival) (FISH +, IHC −, P-AKT +, N 15): 14 (3-19) months
TTP (FISH +, IHC −, P-AKT +, N 15): 3 (2-6) months
1-yr surv (FISH +, IHC −, P-AKT −, N 2): 0% (0-69)
DCR (FISH +, IHC −, P-AKT −, N 2): 0%
OR (response rate) (FISH +, IHC −, P-AKT −, N 2): 0%
OS (median survival) (FISH +, IHC −, P-AKT −, N 2): 9 (NA) months
TTP (FISH +, IHC −, P-AKT −, N 2): 2 (NA) months
1-yr surv (FISH −, IHC +, EGFR Mut +, n 12): 42% (1470)
